Data set [1] has as its system Escherichia coli CCUG^T. The data set is described as follows: MAC determination in the presence of subinhibitory colistin. Further details: key to MAC Eco: -: No synergistic activity. Conditions: for MAC Eco: in the presence of 0.5 × MIC colistin; for MIC/MAC Ratio Eco: minimal ratio of MIC of compound alone to MAC with 0.5 × MIC colistin. The class given is cell-based. Here is the method:
(§1) The minimum inhibitory concentration (MIC) and minimum bactericidal concentration (MBC) of the compounds were determined in triplicate using Mueller–Hinton broth and a bacterial inoculum of 5 × 10^5 CFU/mL, as recommended by the CLSI [26]. The minimum antibacterial concentration (MAC) of the compounds was determined in the presence of a fixed and subinhibitory concentration of colistin (as mentioned above).

Data set [2] concerns Acinetobacter baumannii ATCC 17978. The description is as above. The settings on record: for MAC Aba: in the presence of 0.5 × MIC colistin; for MIC/MAC Ratio Aba: minimal ratio of MIC of compound alone to MAC with 0.5 × MIC colistin. The arrangement: key to MAC Aba: -: No synergistic activity. The class given is cell-based. Here is the method:
as §1

Data set [3] has as its system Klebsiella pneumoniae ATCC 13833. The data set is described as above. The settings on record: for MAC Kpn: in the presence of 0.5 × MIC colistin; for MIC/MAC Ratio Kpn: minimal ratio of MIC of compound alone to MAC with 0.5 × MIC colistin. In kind it is cell-based. Here is the method: as §1

The molecule `N#Cc1c(C(=O)NC23CC4CC(CC(C4)C2)C3)nn(-c2ccccc2)c1-n1cccc1` gave a melting point of 227 to 229 °C.

`Cc1c(C(=O)NCc2ccc(F)cc2)nn(-c2ccc(Cl)c(Cl)c2)c1-n1cccc1` displayed a melting point of 148 to 151 °C.

`CN1CCN(C(=O)c2cnn(C)c2-n2cccc2)CC1` [Compound 3, (4-Methylpiperazin-1-yl)[1-methyl-5-(1H-pyrrol-1-yl)-1H-pyrazol-4-yl]methanone] showed a melting point of 109 to 111 °C.

For the molecule `CN1CCN(C(=O)c2cnn(-c3ccccc3)c2-n2cccc2)CC1` [Compound 4, (4-Methylpiperazin-1-yl)[1-phenyl-5-(1H-pyrrol-1-yl)-1H-pyrazol-4-yl]methanone], the melting point was in the range of 156 to 158 °C.

Molecule `O=C(NN1CCCCC1)c1cnn(-c2ccccc2)c1-n1cccc1` [Compound 5, 1-Phenyl-N-(piperidin-1-yl)-5-(1H-pyrrol-1-yl)-1H-pyrazole-4-carboxamide] came in with a melting point of 165 to 167 °C.

Take `O=C(Nc1ccc(Cl)cc1)c1cnn(-c2ccccc2)c1-n1cccc1` [Compound 6, N-(4-Chlorophenyl)-1-phenyl-5-(1H-pyrrol-1-yl)-1H-pyrazole-4-carboxamide]: the melting point is 197 to 198 °C.

For the molecule `O=C(c1cnn(-c2ccccc2)c1-n1cccc1)N1CCN(c2ncccn2)CC1` [Compound 7, [1-Phenyl-5-(1H-pyrrol-1-yl)-1H-pyrazol-4-yl][4-(pyrimidin-2-yl)piperazin-1-yl]methanone], the melting point is 218 to 219 °C.

Take `COC(=O)CNC(=O)c1cnn(-c2ccccc2)c1-n1cccc1` [Compound 11, Methyl [[[1-Phenyl-5-(1H-pyrrol-1-yl)-1H-pyrazol-4-yl]carbonyl]amino]acetate]: the melting point lay in the range of 139 to 141 °C.

Regarding `CCOC(=O)[C@H](C)NC(=O)c1cnn(-c2ccccc2)c1-n1cccc1` [Compound 12, Ethyl (S)-2-[[[1-Phenyl-5-(1H-pyrrol-1-yl)-1H-pyrazol-4-yl]carbonyl]amino]propanoate], the melting point lay within 90 to 92 °C.

Take `CCOC(=O)[C@@H](NC(=O)c1cnn(-c2ccccc2)c1-n1cccc1)C(C)C` [Compound 13, Ethyl (S)-3-Methyl-2-[[[1-phenyl-5-(1H-pyrrol-1-yl)-1H-pyrazol-4-yl]carbonyl]amino]butanoate]: the melting point lay within 75 to 78 °C. In data set [1], the “MAC Eco” value was 64 µg/mL and the “MIC/MAC Ratio Eco” value was 8. The “MAC Aba” value in data set [2] was “-”. In data set [3], the “MAC Kpn” value came to 32 µg/mL and the “MIC/MAC Ratio Kpn” value is 16.

The molecule `CCOC(=O)[C@H](C)NC(=O)CNC(=O)c1cnn(-c2ccccc2)c1-n1cccc1` [Compound 18, N-[N-[[1-Phenyl-5-(1H-pyrrol-1-yl)-1H-pyrazol-4-yl]carbonyl]glycyl]-L-alanine Ethyl Ester] registered a melting point of 116 to 117 °C.

Take `CC(C)(C)OC(=O)Nc1c(C(=O)NCc2ccc(Br)cc2)cnn1-c1ccccc1` [Compound 20, N-(4-Bromobenzyl)-5-(tert-butoxycarbonylamino)-1-phenyl-1H-pyrazole-4-carboxamide]: the melting point is 175 to 176 °C. For the same molecule, the “MAC Eco” value in data set [1] was “-”. Moreover, in data set [2], the “MAC Aba” value worked out at 64 µg/mL and the “MIC/MAC Ratio Aba” value is listed as 8. In addition, in data set [3], the “MAC Kpn” value turned out to be 64 µg/mL and the “MIC/MAC Ratio Kpn” value was found to be 8.

On to `CC(C)(C)OC(=O)Nc1c(C(=O)NCc2ccc(Br)cc2)cnn1-c1ccc([N+](=O)[O-])cc1` [Compound 21, N-(4-Bromobenzyl)-5-(tert-butoxycarbonylamino)-1-(4-nitrophenyl)-1H-pyrazole-4-carboxamide], for which the melting point was 169 to 171 °C.

In turn, `CC(C)(C)OC(=O)Nc1c(C(=O)NCc2ccc(-c3ccc(OC(F)(F)F)cc3)cn2)cnn1-c1ccc([N+](=O)[O-])cc1` [Compound 22, 5-(tert-Butoxycarbonylamino)-1-(4-nitrophenyl)-N-[[5-(4-trifluoromethoxyphenyl)pyridin-2-yl]methyl]-1H-pyrazole-4-carboxamide] registered a melting point of 197 to 199 °C. For the same molecule, the “MAC Eco” value in data set [1] is “-”. Further, in data set [2], the “MAC Aba” value turned out to be 64 µg/mL and the “MIC/MAC Ratio Aba” value worked out at 8. Further, in data set [3], the “MAC Kpn” value is reported as 64 µg/mL and the “MIC/MAC Ratio Kpn” value came out at 8.

Molecule `O=C(NC12CC3CC(CC(O)(C3)C1)C2)c1cc(-n2cccc2)n(-c2ccccc2)n1` [Compound 23, N-(Adamantan-3-ol-1-yl)-1-phenyl-5-(1H-pyrrol-1-yl)-1H-pyrazole-3-carboxamide] had a melting point of 217 to 221 °C.

`CC(C)(C)OC(=O)[C@H](Cc1ccccc1)NC(=O)c1nn(-c2ccccc2)c(-n2cccc2)c1C#N` [Compound 25, tert-Butyl (S)-3-Phenyl-2-[[[4-cyano-1-phenyl-5-(1H-pyrrol-1-yl)-1H-pyrazol-3-yl]carbonyl]amino]propanoate] returned a melting point of 93 to 94 °C.

For `CCOC(=O)N1CCN(C(=O)c2nn(-c3ccccc3)c(-n3cccc3)c2C)CC1` [Compound 26, (4-Ethoxycarbonylpiperazin-1-yl)[4-methyl-1-phenyl-5-(1H-pyrrol-1-yl)-1H-pyrazol-3-yl]methanone], the melting point was 130 to 131 °C.

Regarding `Cc1c(C(=O)NCc2ccc3c(c2)OCO3)nn(-c2ccc(Cl)cc2)c1-n1cccc1` [Compound 29, N-(Benzo[d][1,3]dioxol-5-ylmethyl)-1-(4-chlorophenyl)-4-methyl-5-(1H-pyrrol-1-yl)-1H-pyrazole-3-carboxamide], the melting point lay in the range of 144 to 148 °C.

Turning to `Cc1c(C(=O)N2CCOCC2)nn(-c2ccc(Cl)cc2)c1-n1cccc1` [Compound 30, [1-(4-Chlorophenyl)-4-methyl-5-(1H-pyrrol-1-yl)-1H-pyrazol-3-yl](morpholin-4-yl)methanone], the melting point was in the range of 174 to 177 °C.

Take `Cc1c(C(=O)N(CCO)Cc2ccccc2)nn(-c2ccc(Cl)cc2)c1-n1cccc1` [Compound 31, N-Benzyl-1-(4-chlorophenyl)-N-(2-hydroxyethyl)-4-methyl-5-(1H-pyrrol-1-yl)-1H-pyrazole-3-carboxamide]: in data set [1], the “MAC Eco” value stood at 32 µg/mL and the “MIC/MAC Ratio Eco” value stood at 16. In data set [2], the “MAC Aba” value is listed as 32 µg/mL and the “MIC/MAC Ratio Aba” value stood at 16. Besides, in data set [3], the “MAC Kpn” value is given as 16 µg/mL and the “MIC/MAC Ratio Kpn” value was determined as 32.

Take `CCOC(=O)c1ccc(NC(=O)c2nn(-c3ccc(Cl)cc3)c(-n3cccc3)c2C)cc1` [Compound 32, Ethyl 4-[[[1-(4-Chlorophenyl)-4-methyl-5-(1H-pyrrol-1-yl)-1H-pyrazol-3-yl]carbonyl]amino]benzoate]: the melting point lay in the range of 168 to 170 °C.

In the case of `Cc1c(C(=O)NCc2ccncc2)nn(-c2ccc(Cl)cc2)c1-n1cccc1` [Compound 33, 1-(4-Chlorophenyl)-4-methyl-N-(pyridin-4-ylmethyl)-5-(1H-pyrrol-1-yl)-1H-pyrazole-3-carboxamide], the melting point is 189 to 193 °C.

In turn, `Cc1c(C(=O)N(C)Cc2ccccc2)nn(-c2ccc(Cl)cc2)c1-n1cccc1` [Compound 34, N-Benzyl-1-(4-chlorophenyl)-N,4-dimethyl-5-(1H-pyrrol-1-yl)-1H-pyrazole-3-carboxamide] had a melting point of 104 to 108 °C.

Turning to `N#Cc1c(C(=O)NCc2ccncc2)nn(-c2ccc(Cl)cc2)c1-n1cccc1` [Compound 35, 1-(4-Chlorophenyl)-4-cyano-N-(pyridin-4-ylmethyl)-5-(1H-pyrrol-1-yl)-1H-pyrazole-3-carboxamide], the melting point lay within 85 to 88 °C.

As to `Cc1c(C(=O)Nc2nc(-c3ccc(F)cc3)cs2)nn(-c2ccc(Cl)c(Cl)c2)c1-n1cccc1` [Compound 37, 1-(3,4-Dichlorophenyl)-N-[4-(4-fluorophenyl)thiazol-2-yl]-4-methyl-5-(1H-pyrrol-1-yl)-1H-pyrazole-3-carboxamide], the melting point is 207 to 210 °C.

In turn, `Cc1c(C(=O)NCc2ccc3c(c2)OCO3)nn(-c2ccc(Cl)c(Cl)c2)c1-n1c(C)ccc1C` [Compound 38, N-(Benzo[d][1,3]dioxol-5-ylmethyl)-1-(3,4-dichlorophenyl)-4-methyl-5-(2,5-dimethyl-1H-pyrrol-1-yl)-1H-pyrazole-3-carboxamide] registered a melting point of 141 to 145 °C.

As for `COC(=O)c1cccc(NC(=O)c2nn(-c3ccc(Cl)cc3)c(-n3cccc3)c2C)c1` [Compound 41, Methyl 3-[[[1-(4-Chlorophenyl)-4-methyl-5-(1H-pyrrol-1-yl)-1H-pyrazol-3-yl]carbonyl]amino]benzoate], the melting point fell in the range of 158 to 160 °C.

For the molecule `COC(=O)c1ccccc1NC(=O)c1nn(-c2ccc(Cl)cc2)c(-n2cccc2)c1C` [Compound 43, Methyl 2-[[[1-(4-Chlorophenyl)-4-methyl-5-(1H-pyrrol-1-yl)-1H-pyrazol-3-yl]carbonyl]amino]benzoate], the melting point lay within 217 to 219 °C.

On to `Cc1c(C(=O)Nc2ccc(S(N)(=O)=O)cc2)nn(-c2ccc(Cl)cc2)c1-n1cccc1` [Compound 46, 1-(4-Chlorophenyl)-4-methyl-5-(1H-pyrrol-1-yl)-N-(4-sulfamoylphenyl)-1H-pyrazole-3-carboxamide], for which the melting point was in the range of 238 to 239 °C.

`CSc1ccc(NC(=O)c2nn(-c3ccc(Cl)cc3)c(-n3cccc3)c2C)cc1` [Compound 48, 1-(4-Chlorophenyl)-N-(4-methylthiophenyl)-4-methyl-5-(1H-pyrrol-1-yl)-1H-pyrazole-3-carboxamide] gave a melting point of 102 to 105 °C.

The melting point is the temperature, or range, at which the solid turns liquid.

(Values after publication PMC9774939, “Optimization of Pyrazole Compounds as Antibiotic Adjuvants Active against Colistin- and Carbapenem-Resistant Acinetobacter baumannii” (Antibiotics, 2022).)
